# Assay results published in US9549945B2, “Use of alkylated semi-synthetic glycosaminoglycosan ethers for the treatment of inflammation” (University of Utah Research Foundation, priority 2008, dated 2017).
# Entries after “also recorded” stand apart in the source; their conditions may differ.
# What was measured:
# ARPE-19 cells = assay: AGE-BSA induced apoptosis of ARPE-19 cells (Live/Dead stain); assay type: cell-based, human; details: AGE-BSA 25 μM, 40 h; test substance 200 μM
# Protocol: The ability of AGE products to induce RPE cell apoptosis was investigated. ARPE-19 cells were grown to confluence on round coverslips, then transferred to new dishes for exposure to 25 μM AGE-BSA for 40 h. Apoptosis was then assayed with Molecular Probes Fixable Live/Dead Cell Stain Kit (L11101, Eugene, Oreg.). […] Nuclei are stained […] with DAPI; dead cells are stained green. A. BSA control. Some dead cells are noted at the edges of the coverslip, but live and dead cells are interspersed at the interface. B. AGE-BSA (25 μM). Significant cell death is seen around the edges, and the boundary between live and dead cells is stark. C. AGE-BSA (25 μM)+ODSH (200 μM).
# [1] = tested on: RAGE expression in ARPE-19 cells; assay: AGE (CML-BSA)-induced RAGE expression in ARPE-19 cells (immunoblot); assay type: cell-based, human; details: ARPE-19 cells on CML-BSA coated plates
# Protocol: Experiments studying the biology of RAGE in cultured RPE cells using the ARPE-19 human RPE cell line were conducted. As shown in immunoblots (FIG. 17), ARPE-19 cells express at least 4 isoforms of RAGE ranging from 45-50 kDa in cell lysates, and secrete these isoforms into conditioned media. […] Because RAGE ligation activates the transcription factor NF-κB, enhanced expression of RAGE greatly promotes pro-inflammatory signaling. […] This would prevent “feed-forward” pro-inflammatory increases in RAGE expression itself by RAGE ligation.
# Xa = assay: Anti-Xa anticoagulant activity; assay type: biochemical
# IIa = assay: Anti-IIa anticoagulant activity; assay type: biochemical
# [2] = target: T1, Hageman factor (Factor XII) (Homo sapiens, UniProt P00748); assay: Hageman factor (Factor XII) activation in pooled human plasma, amidolytic activity; assay type: biochemical; details: FIG. 19
# T1 construct: from tissue; host or cells: pooled human plasma
# T1 sequence (P00748 20-615): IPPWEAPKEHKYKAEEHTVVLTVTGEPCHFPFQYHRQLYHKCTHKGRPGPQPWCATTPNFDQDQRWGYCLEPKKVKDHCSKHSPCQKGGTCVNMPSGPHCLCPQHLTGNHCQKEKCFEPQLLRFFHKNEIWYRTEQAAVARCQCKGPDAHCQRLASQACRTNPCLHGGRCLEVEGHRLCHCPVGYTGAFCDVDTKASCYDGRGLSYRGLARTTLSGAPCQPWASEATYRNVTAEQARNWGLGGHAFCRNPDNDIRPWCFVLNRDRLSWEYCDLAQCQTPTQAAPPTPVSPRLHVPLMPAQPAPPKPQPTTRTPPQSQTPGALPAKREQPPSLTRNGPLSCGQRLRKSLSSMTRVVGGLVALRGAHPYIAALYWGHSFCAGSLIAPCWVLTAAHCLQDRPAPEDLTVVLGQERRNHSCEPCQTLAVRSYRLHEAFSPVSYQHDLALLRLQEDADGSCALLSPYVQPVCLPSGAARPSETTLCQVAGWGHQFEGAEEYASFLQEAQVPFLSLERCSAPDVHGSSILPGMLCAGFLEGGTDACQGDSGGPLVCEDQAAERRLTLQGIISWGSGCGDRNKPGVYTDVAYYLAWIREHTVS
# Protocol: Nat Biotech 26:669-675, 2008). […] Amidolytic activity specific for active kallikrein was determined by adding D-Pro-Phe-Arg-p-NA and following change in absorbance at […].
# [3] = tested on: LL-37 induced skin inflammation; assay: SAGE topical treatment in LL-37 rosacea model; assay type: in vivo, Balb/c mice; details: topical administration
# Protocol: Balb/c mice were shaved […] area of skin on the back. We then began topical application of a hyaluronan-cased emollient containing 5% SAGEs (active emollient) or hyaluronic acid based emollient alone to this area of skin every 12 hours. Twenty-four hours later, we injected 40 μL of vehicle (PBS) or cationic peptide (at 320 μM concentration) subcutaneously into the shaved skin in the manner described previously. Injections and topical emollient applications were repeated every 12 h thereafter. Forty-eight hours after the initial injection (four injections in total), animals were lightly anesthetized as described previously. […] The intensity of erythema was assessed as a redness score (from 1 to 5), and the area of erythema was measured with calipers. […]
# For each mouse, tissue biopsies (6 mm diameter hole punch) were taken immediately, weighted, frozen and stored at −80° C. Tissue MPO activity was measured using a method by Suzuki et. al. (Suzuki K, Ota H, Sasagawa S, Sakatani T, Fujikura T. Assay method for myeloperoxidase in human polymorphonuclear leukocytes. Anal Biochem 132:345-352, 1983) as modified by Young et. al. (Young J M, Spires D A, Bedord C J, Wagner B, Ballaron S J, De oung LM. The mouse ear inflammatory response to topical arachidonic acid. J Invest Dermatol 82:367-371, 1984). […] MPO enzyme activity was assessed at an absorbance wavelength of 630 nm. […]
substance,measurement,setting,value
"2-O, 3-O desulfated heparin [ODSH]",AGE-induced apoptosis,ARPE-19 cells,some protection but significant apoptosis still occurs; also recorded: reduced
same,up-regulation of RAGE expression by CML-BSA,[1],prevented up-regulation of RAGE expression
heparin,anti-Xa anticoagulant activity,Xa,150 U/mg
same,anti-IIa anticoagulant activity,IIa,150 U/mg
same,concentration that activates Factor XII,[2],400 ng/mL
"Hyaluronic acid [HA, reference compound]","MPO activities in LL-37 rosacea model, SAGE vs. HA",[3],did not alleviate
same,"inflammation in LL-37 rosacea model, SAGE vs. HA",[3],did not alleviate inflammation
